# Patent publication US8354545B2, “3,4-substituted pyrrolidine beta-secretase inhibitors for the treatment of alzheimer's disease” (Merck, Sharp & Dohme, Corp., priority 2007, dated 2013)
# Target: T1, BACE 1 (Homo sapiens, UniProt P56817)
# T1 construct: soluble (transmembrane domain and cytoplasmic extension excluded) human protein; made in house; host or cells: baculovirus expression system (insect cells implied)
# Test: ECL Assay: homogeneous end point electrochemiluminescence assay with biotinylated BACE substrate
# Assay type: biochemical
# Conditions: soluble human enzyme, pH 6.5
# Procedure: Enzyme inhibition is determined as follows.
# ECL Assay: A homogeneous end point electrochemiluminescence (ECL) assay is performed using a biotinylated BACE substrate. […] A typical reaction contains approximately 0.6 nM enzyme, 0.25 μM of the substrate, and buffer (50 mM Pipes, pH 6.5, 0.1 mg/ml BSA, 0.2% CHAPS, 15 mM EDTA and 1 mM deferoxamine) in a total reaction volume of 100 μl. […] To measure the inhibitory potency for compounds, 10 concentrations of inhibitors are prepared starting from 200 μM with three fold series dilution. Solutions of the inhibitor in DMSO are included in the reaction mixture (final DMSO concentration is 10%). All experiments are conducted at […] using the standard reaction conditions described above. To determine the IC50 of the compound, a four parameter equation is used for curve fitting.
# T1 sequence (P56817 46-457 limits assumed): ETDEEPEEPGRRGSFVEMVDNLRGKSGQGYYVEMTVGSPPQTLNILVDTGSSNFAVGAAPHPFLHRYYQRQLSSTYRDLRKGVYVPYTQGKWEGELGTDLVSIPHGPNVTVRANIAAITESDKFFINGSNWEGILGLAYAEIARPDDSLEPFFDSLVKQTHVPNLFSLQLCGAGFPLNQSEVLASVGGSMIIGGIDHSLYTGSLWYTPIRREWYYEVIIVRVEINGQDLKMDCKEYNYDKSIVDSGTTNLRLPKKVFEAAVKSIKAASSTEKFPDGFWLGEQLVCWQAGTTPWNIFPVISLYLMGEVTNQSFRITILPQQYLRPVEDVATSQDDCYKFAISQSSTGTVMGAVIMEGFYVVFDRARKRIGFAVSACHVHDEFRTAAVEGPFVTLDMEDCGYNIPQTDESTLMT
row,IC50 [µM],SMILES
1,67,"O=C([C@@H]1CNC[C@H]1c1ccccc1Br)N1CCCC1Cc1ccccc1 (stereo partly drawn) [Example 8, 2-benzyl-1-{[(3S,4R)-4-(2-bromophenyl)pyrrolidin-3-yl]carbonyl}pyrrolidine]"
2,19,"O=C([C@@H]1CNC[C@H]1c1ccccc1Br)N1CCC2(C=Cc3ccccc32)CC1 [Example 38, 1-{[(3S,4R)-4-(2-bromophenyl)pyrrolidin-3-yl]carbonyl}spiro[indene-1,4′-piperidine]]"
3,1.8,"O=C([C@@H]1CNC[C@H]1c1ccccc1Br)N1CCC2(C=Cc3ccccc32)CC1c1ccccc1 (stereo partly drawn) [Example 79, 1′-{[(3S,4R)-4-(2-bromophenyl)pyrrolidin-3-yl]carbonyl}-2′-phenylspiro[indene-1,4′-piperidine]]"
4,18,CCOc1ccc(-c2ccccc2[C@@H]2CNC[C@H]2C(=O)N2CCOC[C@@H]2c2ccccc2)cc1 [Example 12]

# Further lines, the compound ahead of its results:
row,SMILES,IC50 [µM]
1,"CS(=O)(=O)c1ccc(-c2ccccc2[C@@H]2CNC[C@H]2C(=O)N2CCC3(C=Cc4ccccc43)CC2c2ccccc2)cc1 (stereo partly drawn) [Example 83, 1′-({(3S,4R)-4-(4′-(methylsulfonyl)biphenyl-2-yl]pyrrolidin-3-yl}carbonyl)-2′-phenylspiro-[indene-1,4′-piperidine]]",0.38
2,"CS(=O)(=O)c1ccc(-c2ccccc2[C@@H]2CNC[C@H]2C(=O)N2CCC(c3ccccc3)CC2c2ccccc2)cc1 (stereo partly drawn) [Example 76, 1-({(3S,4R)-4-[4′-(methylsulfonyl)biphenyl-2-yl]pyrrolidin-3-yl}carbonyl)-2,4-diphenylpiperidine]",3.5
3,CS(=O)(=O)c1ccc(-c2ccccc2[C@@H]2CNC[C@H]2C(=O)N2CCC3(C=Cc4ccccc43)CC2)cc1 [Example 64],3
